Measurements taken from the NIST ThermoML archive (doi:10.1016/j.jct.2008.07.019).
“And” between values parts separate entries of the source, which are not always exact repeats. Identical values can stand only once. Numbers after ± are expanded uncertainties.

Assay: cn = amount concentration of the nth substance listed, in mol/dm3
Conditions: 101 kPa, Liquid, c1 = 2

SMILES	viscosity (298.15 K) [mPa·s]	viscosity (303.15 K) [mPa·s]	viscosity (308.15 K) [mPa·s]	viscosity (313.15 K) [mPa·s]	viscosity (318.15 K) [mPa·s]	viscosity (323.15 K)
O=[N+]([O-])[O-].[K+] [potassium nitrate] + O	0.9118 ± 0.023	0.8404 ± 0.021	0.7619 ± 0.02	0.6989 ± 0.018	0.64 ± 0.017	0.5929 ± 0.016 mPa·s and 0.5829 ± 0.016 mPa·s
[Cl-].[K+] [potassium chloride] + O	0.887 ± 0.022	0.8552 ± 0.022	0.7658 ± 0.02	0.6995 ± 0.018	0.6492 ± 0.017	0.6037 ± 0.016 mPa·s
